Patent publication US12465610B2, “Compounds and methods for the treatment of PKR-associated diseases” (Board of Regents, The University of Texas System, priority 2019, dated 2025)

Tests used:
HeLaPKRkd cells [1] = experiment: SRB cell viability assay; assay type: cell-based, human; conditions: 72 hours after treatment
Method: (§1) Anticancer effects of PKR-targeting compounds depend on PKR expression status: To identify compounds that can target lysosomes in PKR-positive cells or MVBs/exosomes in PKR-negative cells, the 10,000-compound ChemBridge library was screened for compounds with different effects on the growth of HeLa and HeLaPKRkd cells. […] SRB assays were next used to determine cell viability after treatment with Pac 1 or Pac 2.
(§2) Cell viability assays: For SRB assays, cells (2-8×10^3/well in 100 μL of culture medium) were seeded in 96-well flat-bottomed plates and treated the next day with compounds at the indicated concentrations. After the indicated treatments, cells were fixed with trichloroacetic acid. The protein was stained with SRB, and the optical density at 570 nm was determined. Relative cell viability was calculated by setting the viability rate of the control cells (exposed only to dimethyl sulfoxide) at 100% and comparing the viability of the treated cells with that of the controls. The experiments were performed at least three times for each cell line. The viability of leukemia cell lines was determined by using a 3-(4,5-dimethylthiazol-2-yl)-2,5-diphenyltetrazolium bromide assay.
(§3) Identification of PKR-associated compounds and cytotoxicity studies: The library of 10,000 compounds was screened for those with different effects on the growth of HeLa and HeLaPKRkd cells. […] Treated cells were observed under a microscope to detect morphologic changes, and their viability was determined using SRB assays 2 and 3 days after treatment. […]
(§4) For the SRB assay, cells (2-8×10^3/well in 100 μL of culture medium) were seeded in 96-well flat-bottomed plates and treated the next day with compounds at the indicated concentrations. […] The cells were stained using SRB, and the optical density at 570 nm was determined. Relative cell viability was determined by setting the viability of the control cells (exposed only to dimethyl sulfoxide) at 100% and comparing their viability with that of the treated cells. […]

HeLa cells = experiment: SRB cell viability assay; assay type: cell-based, human; conditions: 72 hours after treatment
Method: as §1, §2, §3, §4

[2] = system: lysosomes and MVBs/exosomes; experiment: Transmission electron microscopy (TEM) of treated cells; assay type: cell-based, human
Toxicity in mice = conditions: 50 mg/kg intravenously daily for 7 days
[3] = system: normal cells (HBE, human mammary epithelial cells); experiment: SRB cell viability assay, normal cells; assay type: cell-based; conditions: 72 hours after treatment, HBE and human mammary epithelial cells
Method: The effects of Pac 1 and Pac 2 were next examined on PKR protein expression in HeLa cells using Western blot analysis. […] No reduction in normal cell viability was observed after treatment with Pac 1 or Pac 2 (FIGS. 5F and G). […] Because most of the cancer cell lines that were tested were more sensitive to Pac 1 than to Pac 2, Pac 1 was further investigated.
as §2
For the SRB assay, cells (2-8×10^3/well in 100 μL of culture medium) were seeded in 96-well flat-bottomed plates and treated the next day with compounds at the indicated concentrations. […] The cells were stained using SRB, and the optical density at 570 nm was determined. […]

HeLaPKRkd cells [4] = experiment: Microscopic analysis of morphologic changes; assay type: cell-based, human
Description: as §1
Identification of PKR-associated compounds and cytotoxicity studies: The library of 10,000 compounds was screened for those with different effects on the growth of HeLa and HeLaPKRkd cells. For this screening, both HeLa and HeLaPKRkd cells were seeded in 96-well plates in parallel and treated with each compound at a final concentration of 5 μg/mL. Cells treated with dimethyl sulfoxide (final concentration, 1%) were used as controls. Treated cells were observed under a microscope to detect morphologic changes, and their viability was determined using SRB assays 2 and 3 days after treatment. The compounds initially observed to have different effects on HeLa and HeLaPKRkd cells were subjected to two confirmatory screenings.

AP-1/2/3 complexes = experiment: Western blot of AP-1, AP-2 and AP-3 complex-associated proteins; assay type: cell-based, human; conditions: H1299 and MDA-MB-231 cells, 72 hours after treatment
Description: Western blotting was next used to evaluate proteins known to be involved in AP-1/2/3 complexes in lung (H1299) and breast (MDA-MB-231) cancer cells after treatment with Pac 1 or Pac 2. […] AP-1 and AP-2 mediate protein sorting in the endosome, trans-Golgi network, and plasma membrane. […] The impact of Pac 1 was then investigated on lysosome function by staining cells with the acidophilic dye LysoTracker Red.

prion degradation = assay type: cell-based, human; conditions: HeLa cells, Ad-Prion 48 hours, 1 mM

Row | Compound | viability of HeLaPKRkd cells (HeLaPKRkd cells [1]) | viability of HeLa cells (HeLa cells) | lysosomal exocytosis by TEM ([2]; HeLa cells) | lysosomes and MVBs/exosomes by TEM ([2]; HeLaPKRkd cells) | blood chemistry: aspartate aminotransferase, SGOT, SGPT, alkaline phosphatase, creatine kinase, lactate dehydrogenase levels (Toxicity in mice) | histopathologic examination of major organs (Toxicity in mice; heart, lungs, liver, kidneys, pancreas, spleen) | normal cell viability [3] | growth of HeLaPKRkd cells by microscopy (HeLaPKRkd cells [4]) | expression of proteins associated with AP-1 (Rab7α, HSC70, AP-1γ) or AP-2 (AP-2α) (AP-1/2/3 complexes) | prion degradation (prion degradation)
1 | Fc1ccc(Nc2nc(N/N=C/c3ccc4c(c3)OCO4)nc(N3CCOCC3)n2)cc1 [Pac 2, 1,3-benzodioxole-5-carbaldehyde [4-[(4-fluorophenyl)amino]-6-(4-morpholinyl)-1,3,5-triazin-2-yl]hydrazine] | suppressed more effectively by Pac 2 | not sensitive | induced lysosomal exocytosis | destroyed MVBs/exosomes | normal | no significant changes in any major organs | No reduction | suppressed the growth of HeLaPKRkd cells more effectively than did Pac 1 | No reduction of expression | –
2 | Cn1cnc(N)c2ncnc1-2 [Pac 3MA, 3-methyladenine] | – | – | – | – | – | – | – | – | – | prevented prion degradation
